Experimental data as given in patent publication US7258999B2, “PTH responsive gene” (Wyeth, priority 2002, dated 2007).

Test system: PAIGB expression
Assay: Northern blot of PAIGB in rat tibia RNA
Format: in vivo
Details: intermittent PTH
Procedure: Isolated RNA was run on 1.2% agorase gel in 1×MOPS ((3-[N-morpholino]propanesulfonic acid) buffer) and formaldehyde. RNA gel was run in 1×MOPS (Sigma). RNA was transferred on nylon membrane (S&S) using Turbo-blot according to instruction provided by manufacturer (S&S). RADE fragment(s) as well as GAPDH or ciclophylin were labeled using random prime labeling kit (Gibco, BRL) according to provided instructions. Hybridization with labeled probes was performed using ExpressHyb (Sigma), at 68° C. over night. Blots were washed 2 times at room temperature for 15 min in low stringency buffer (2×SSC, 0.1% SDS), and 1 time at 65° C. for 15 min in […]. Blots were exposed over night using Kodak film.
In order to confirm the results from RADE experiments data, Northern blot analysis was done on RNA samples from rat tibia after intermittent and continuous PTH injections. […] In addition a multiple tissue northern blot was performed on the samples provided by commercially available blots. The northern blot analysis indicated very abundant expression of PAIGB in brain, but little expression in heart and lung.

human PTH (1-34)
increase of PAIGB expression vs vehicle (phosphor-imager, Northern blot): 36 fold
